Source: US7989464B2, “mGluR1 antagonists as therapeutic agents” (Schering Corporation, priority 2004, dated 2011)
Where two headings read alike, the source gives them in different places.

Molecular target: T1, hmGluR1 receptor (Homo sapiens, UniProt Q13255)
T1 construct: expressed in transfected cells
Assay: IC50 determination: intracellular calcium mobilization (FLIPR) upon Quisqualate stimulation in CHO cells stably expressing hmGluR1
Format: cell-based
Settings: against Quisqualate 1 μM (EC80)
In short: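 CHO cells stably expressing hmGluR1 were kept overnight in DMEM high glucose with GPT and 1 mM pyruvate, then loaded 2 h with Calcium 3 dye.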

[1] = class symbols, read-out: mGIuR 1 IC50
[2] = FLIPR calcium mobilization, read-out: IC50 Class
[3] = FLIPR calcium mobilization, read-out: mGluR1 IC50

T1 sequence (Q13255 19-1194): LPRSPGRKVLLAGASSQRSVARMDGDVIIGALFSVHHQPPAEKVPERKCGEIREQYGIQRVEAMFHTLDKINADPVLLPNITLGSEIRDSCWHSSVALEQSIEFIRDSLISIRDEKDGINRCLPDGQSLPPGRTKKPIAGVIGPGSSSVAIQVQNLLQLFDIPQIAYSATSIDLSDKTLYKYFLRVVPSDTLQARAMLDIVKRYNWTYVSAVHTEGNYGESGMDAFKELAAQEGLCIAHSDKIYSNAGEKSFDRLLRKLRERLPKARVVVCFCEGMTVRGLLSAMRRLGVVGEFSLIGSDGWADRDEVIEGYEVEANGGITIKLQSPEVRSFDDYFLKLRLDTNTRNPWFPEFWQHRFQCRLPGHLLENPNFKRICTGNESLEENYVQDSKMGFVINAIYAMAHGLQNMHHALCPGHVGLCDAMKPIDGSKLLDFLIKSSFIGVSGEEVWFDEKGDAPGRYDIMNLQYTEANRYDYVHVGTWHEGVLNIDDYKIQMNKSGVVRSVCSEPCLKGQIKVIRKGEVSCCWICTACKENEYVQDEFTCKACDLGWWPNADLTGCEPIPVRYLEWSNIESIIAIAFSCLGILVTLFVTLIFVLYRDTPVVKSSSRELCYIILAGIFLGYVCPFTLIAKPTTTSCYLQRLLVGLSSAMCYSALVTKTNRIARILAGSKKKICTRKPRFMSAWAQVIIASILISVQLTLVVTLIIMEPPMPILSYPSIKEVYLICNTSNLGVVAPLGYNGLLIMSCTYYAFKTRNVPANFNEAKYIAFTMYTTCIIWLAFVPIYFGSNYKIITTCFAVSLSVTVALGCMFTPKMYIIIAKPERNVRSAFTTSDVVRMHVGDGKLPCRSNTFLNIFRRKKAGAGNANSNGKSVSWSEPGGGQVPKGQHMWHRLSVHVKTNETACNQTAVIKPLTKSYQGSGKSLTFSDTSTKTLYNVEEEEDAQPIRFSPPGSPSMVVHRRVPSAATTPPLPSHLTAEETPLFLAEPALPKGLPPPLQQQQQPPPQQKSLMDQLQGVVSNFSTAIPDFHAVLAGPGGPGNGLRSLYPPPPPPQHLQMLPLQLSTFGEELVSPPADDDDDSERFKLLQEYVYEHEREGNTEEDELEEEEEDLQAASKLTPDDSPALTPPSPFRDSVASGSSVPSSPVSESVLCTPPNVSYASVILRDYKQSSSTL

Cc1ccc(-n2cnc3c(sc4nccc(N(C)C)c43)c2=O)nc1 [7DE]
IC50 [1]: < 50 nM

COc1ccnc2sc3c(=O)n(-c4ccc(C)cc4)cnc3c12 [25C]
IC50 [1]: 50 to 150 nM

CN(C)c1ccnc2sc3c(=O)n(-c4ccc(Br)cc4)cnc3c12 [7H]
IC50 [1]: < 50 nM

CN(C)c1ccnc2sc3c(=O)n(-c4ccc(OS(C)(=O)=O)cc4)cnc3c12 [compound 204]
IC50 [2]: 50 to 150 nM

Cc1ccc(-n2cnc3c(sc4nccc(N5CC[C@@H](O)C5)c43)c2=O)cc1 [28CV]
IC50 [2]: > 1000 nM

C=CCNc1nncc2sc3c(=O)n(-c4ccc(C)cc4)cnc3c12 [167C]
IC50 [2]: 150 to 1000 nM

Cc1ccc(-n2c(C(F)(F)F)nc3c(sc4nccc(N(C)C)c43)c2=O)cc1 [117A]
IC50 [1]: 150 to 1000 nM

C=CCNc1ccnc2sc3c(=O)n(-c4ccc(F)cc4)cnc3c12 [28EC]
IC50 [2]: < 50 nM

O=c1c2sc3nc(Cl)ccc3c2ncn1-c1ccccc1 [compound 14]
IC50 [1]: > 1000 nM

O=c1c2sc3nccc(N4CCOCC4)c3c2ncn1C1CCCCC1 [28O]
IC50 [1]: > 1000 nM

O=c1c2sc3nccc(N4CC[C@@H](O)C4)c3c2ncn1C1CCCCC1 [28M]
IC50 [1]: > 1000 nM

O=c1c2sc3nccc(NCCCO)c3c2ncn1-c1ccc2occc2c1 [28BF]
IC50 [2]: < 50 nM

CCc1ncnc2sc3c(=O)n(-c4ccc(OC)cc4)cnc3c12 [compound 201]
IC50 [2]: < 50 nM

CN(C)c1ccnc2sc3c(=O)n(-c4ccc5ncoc5c4)cnc3c12 [7BS]
IC50 [1]: < 50 nM

Cc1ccc(-n2cnc3c(sc4cnnc(Cl)c43)c2=O)cc1 [compound 166]
IC50 [2]: > 1000 nM

CN(CCO)c1ccnc2sc3c(=O)n(-c4ccc(F)cc4)cnc3c12 [28HH]
IC50 [2]: 50 to 150 nM

C#CC(C)Nc1ccnc2sc3c(=O)n(-c4ccc(OC)cc4)cnc3c12 (stereo not shown) [28FA]
IC50 [2]: 150 to 1000 nM

Cc1ccc(-n2cnc3c(sc4nccc(N[C@@H](C)CO)c43)c2=O)cc1 [28DD]
IC50 [2]: 150 to 1000 nM

Cc1cc(N(C)C)c2c(n1)sc1c(=O)n(-c3ccc(C(F)(F)F)cc3)cnc12 [7DM]
IC50 [1]: 150 to 1000 nM

COc1ccc(-n2cnc3c(sc4nc(C)nc(N)c43)c2=O)cc1 [95EU]
IC50 [2]: 150 to 1000 nM

CN(C)c1cccc2sc3c(=O)n(-c4ccccc4F)cnc3c12 [103L]
IC50 [2]: > 1000 nM

CN(C)c1ccnc2sc3c(=O)n(-c4ccc(C(F)(F)F)cc4)cnc3c12 [7DO]
IC50 [1]: < 50 nM

CNc1c(Cl)cnc2sc3c(=O)n(-c4ccc(OC)cc4)cnc3c12 [compound 198]
IC50 [2]: < 50 nM

CCOC(=O)c1cc2c(nc1C(F)(F)F)sc1c(=O)n(-c3ccc(C)cc3)cnc12 [144C]
IC50 [2]: > 1000 nM

CCN(C)c1ncnc2sc3c(=O)n(-c4ccc(C)nc4)cnc3c12 [95U]
IC50 [1]: < 50 nM

Cc1ccc(-n2cnc3c(sc4ncnc(NCC5CC5)c43)c2=O)cc1 [95DP]
IC50 [2]: 50 to 150 nM

CN(C)c1ccnc2sc3c(=O)n(Nc4ccccc4)cnc3c12 [60B]
IC50 [1]: < 50 nM

Cc1cc(N(C)C)c2c(n1)sc1c(=O)n(-c3ccc(F)cc3)cnc12 [7DC]
IC50 [1]: < 50 nM

CN(C)c1c(C#N)cnc2sc3c(=O)n(C4CCCCC4)cnc3c12 [compound 46]
IC50 [1]: < 50 nM

CN1CCN(c2ccnc3sc4c(=O)n(C5CCCCC5)cnc4c23)CC1 [61A]
IC50 [1]: > 1000 nM

O=c1c2sc3nccc(NCCCO)c3c2ncn1-c1ccc(Cl)cc1 [28GD]
IC50 [2]: < 50 nM | IC50 [3]: 0.77 nM

O=c1c2sc3nccc(NC4CC4)c3c2ncn1-c1ccc2occc2c1 [28BI]
IC50 [2]: < 50 nM

COCCCNc1ccnc2sc3c(=O)n(-c4ccc(Br)cc4)cnc3c12 [28GR]
IC50 [2]: < 50 nM

COc1ccc(-n2cnc3c(sc4nccc(N(C)C)c43)c2=O)cc1Cl [7T]
IC50 [1]: 50 to 150 nM

C=C(C)CNc1ccnc2sc3c(=O)n(-c4ccc5c(c4)OCCO5)cnc3c12 [28FF]
IC50 [2]: 150 to 1000 nM

Cc1ccc(-n2cnc3c(sc4nccc(NC5CCC5)c43)c2=O)cc1 [28DA]
IC50 [2]: 150 to 1000 nM

CCCN(C)c1ccnc2sc3c(=O)n(-c4ccc(C)cc4)cnc3c12 [28AT]
IC50 [1]: < 50 nM

CN(C)c1ccnc2sc3c(=O)n(Cc4ccsc4)cnc3c12 [15V]
IC50 [1]: 150 to 1000 nM

C#CCNc1ncnc2sc3c(=O)n(-c4ccc5c(c4)OCCO5)cnc3c12 [95EN]
IC50 [2]: 50 to 150 nM

CN(C)c1ccnc2sc3c(=O)n(-c4cccc(F)c4)cnc3c12 [28CP]
IC50 [2]: < 50 nM

CNc1c(C2CC2)cnc2sc3c(=O)n(-c4ccc(OC)cc4)cnc3c12 [137E]
IC50 [2]: < 50 nM

COc1ccc(-n2cnc3c(sc4nccc(NCC(F)(F)F)c43)c2=O)cc1 [28AW]
IC50 [1]: < 50 nM

Cc1nc2c(sc3nccc(NC4CC4)c32)c(=O)n1-c1ccccc1 [113C]
IC50 [1]: 150 to 1000 nM

C#CCNc1ncnc2sc3c(=O)n(-c4ccc5ncsc5c4)cnc3c12 [95EM]
IC50 [2]: 150 to 1000 nM

CNc1ccnc2sc3c(=O)n(C4CCCCC4)cnc3c12 [28X]
IC50 [1]: < 50 nM

CNc1c(Br)cnc2sc3c(=O)n(-c4ccc(Cl)cc4)cnc3c12 [compound 188]
IC50 [2]: < 50 nM

O=c1c2sc3nccc(NCCO)c3c2ncn1-c1ccc(F)cc1 [28GC]
IC50 [2]: 50 to 150 nM

CN(C)c1ccnc2sc3c(=O)n(-c4nnc(C(F)(F)F)s4)cnc3c12 [15AF]
IC50 [1]: 150 to 1000 nM

CN(C)c1ccnc2sc3c(=O)n(C4CC4)cnc3c12 [15K]
IC50 [1]: > 1000 nM

CNc1ccnc2sc3c(=O)n(-c4ccc5c(c4)OCO5)cnc3c12 [7CB]
IC50 [1]: < 50 nM

CNc1c(CNC2CCC2)cnc2sc3c(=O)n(-c4ccc(OC)cc4)cnc3c12 [compound 208]
IC50 [2]: 150 to 1000 nM

CN(C)c1c(-c2ccc(F)cc2)cnc2sc3c(=O)n(C4CCCCC4)cnc3c12 [47B]
IC50 [1]: > 1000 nM

Cc1ccc(-n2cnc3c(sc4nccc(NC5CCC(O)CC5)c43)c2=O)cc1 (stereo not shown) [28DE]
IC50 [2]: 150 to 1000 nM

CC(=O)Nc1ccc(-n2cnc3c(sc4nccc(N(C)C)c43)c2=O)cc1 [7AL]
IC50 [1]: > 1000 nM

CNc1ccnc2sc3c(=O)n(-c4cccc(F)c4)cnc3c12 [28CO]
IC50 [2]: < 50 nM

CNc1nc(N)c2c(n1)sc1c(=O)n(-c3ccc(C)cc3)cnc12 [71B]
IC50 [2]: > 1000 nM

O=c1c2sc3nccc(NCCCO)c3c2ncn1-c1ccc2c(c1)OCCO2 [28CI]
IC50 [2]: < 50 nM

Cc1ccc(-n2cnc3c(sc4nc(O)cc(N(C)C)c43)c2=O)cc1 [172A]
IC50 [2]: < 50 nM

CCc1ccc(-n2cnc3c(sc4nccc(N(C)C)c43)c2=O)cc1 [7BJ]
IC50 [1]: < 50 nM

CN(C)c1ccnc2sc3c(=O)n(N)c(-c4ccccc4)nc3c12 [65E]
IC50 [1]: > 1000 nM

CN(C)c1ccnc2sc3c(=O)n(-c4ccc(Cl)cc4I)cnc3c12 [7N]
IC50 [1]: 150 to 1000 nM

CCNc1ncnc2sc3c(=O)n(-c4ccc5c(c4)CCO5)cnc3c12 [95AC]
IC50 [1]: < 50 nM

CCc1ccc(-n2cnc3c(sc4nc(C)cc(N(C)C)c43)c2=O)cc1 [7CP]
IC50 [1]: 50 to 150 nM

COc1cc(-n2cnc3c(sc4nccc(NC5CC5)c43)c2=O)ccc1F [131N]
IC50 [2]: 150 to 1000 nM

CN(c1ncnc2sc3c(=O)n(-c4ccc(Br)cc4)cnc3c12)C1CC1 [95DV]
IC50 [2]: < 50 nM | IC50 [3]: 1.94 nM

CN(C)c1ccnc2sc3c(=O)n(C4CCC(C(C)(C)C)CC4)cnc3c12 (stereo not shown) [15M]
IC50 [1]: > 1000 nM

COCCNc1ccnc2sc3c(=O)n(-c4ccc(Br)cc4)cnc3c12 [28GO]
IC50 [2]: < 50 nM

COc1ccccc1CCn1cnc2c(sc3nccc(N(C)C)c32)c1=O [28EM]
IC50 [2]: > 1000 nM

CCNc1ncnc2sc3c(=O)n(-c4ccc(OC)c(F)c4)cnc3c12 [95BL]
IC50 [2]: < 50 nM

Cc1ccc(-n2cnc3c(sc4nc(C5CC5)nc(N)c43)c2=O)cc1 [71D]
IC50 [2]: 150 to 1000 nM

CCOc1ccc(-n2cnc3c(sc4nccc(N(C)C)c43)c2=O)cc1 [7AE]
IC50 [1]: 150 to 1000 nM

CNc1ccnc2sc3c(=O)n(-c4cccc(Cl)c4)cnc3c12 [28CC]
IC50 [2]: 50 to 150 nM

CN(C)c1ccnc2sc3c(=O)n(-c4ccccc4)cnc3c12 [7D]
IC50 [1]: < 50 nM

O=c1c2sc3nccc(NC4CCCCC4)c3c2ncn1-c1ccccc1 [28D]
IC50 [1]: > 1000 nM

C=CCNc1ccnc2sc3c(=O)n(-c4ccc(Br)cc4)cnc3c12 [28DR]
IC50 [2]: < 50 nM

COc1ccc(Nc2ncnc3sc4c(=O)n(-c5ccc(F)cc5)cnc4c23)cc1 [95GK]
IC50 [2]: > 1000 nM

Cc1cccc(-n2cnc3c(sc4nccc(N(C)C)c43)c2=O)n1 [7CX]
IC50 [1]: 50 to 150 nM

CCN(C)c1ccnc2sc3c(=O)n(-c4cccc(Cl)c4)cnc3c12 [28CA]
IC50 [2]: < 50 nM

CN(C)c1ccnc2sc3c(=O)n(C4Cc5ccccc5C4)cnc3c12 [15Y]
IC50 [1]: < 50 nM

COCCn1cnc2c(sc3nccc(N(C)C)c32)c1=O [15D]
IC50 [1]: > 1000 nM

Cc1ccc(-n2cnc3c([nH]c4nccc(N(C)C)c43)c2=O)cc1 [135A]
IC50 [1]: > 1000 nM

COc1ccnc2sc3c(=O)n(-c4ccc(Cl)cc4C)cnc3c12 [28FU]
IC50 [2]: > 1000 nM

O=c1c2sc3nccc(NC4CCCC4)c3c2ncn1C1CCCCC1 [28T]
IC50 [1]: > 1000 nM

C#CCNc1nncc2sc3c(=O)n(-c4ccc(C)cc4)cnc3c12 [167J]
IC50 [2]: 50 to 150 nM

O=c1c2sc3nccc(NCCCCO)c3c2ncn1-c1ccc(F)cc1 [28GU]
IC50 [2]: < 50 nM

CCCc1nc2c(sc3nccc(N(C)C)c32)c(=O)n1-c1ccc(OC)cc1 [116F]
IC50 [1]: 150 to 1000 nM
